Laboratory results taken from paper PMC6937156, “The nature of the ligand’s side chain interacting with the S1'-subsite of metallocarboxypeptidase T (from Thermoactinomyces vulgaris) determines the geometry of the tetrahedral transition complex” (PLoS ONE, 2019).

molecular target: T1, carboxypeptidase T (CPT) (Thermoactinomyces vulgaris, UniProt P29068); assay: inhibition of tripeptide hydrolysis, integral kinetic curves at […] nm; type: biochemical
T1 construct: mature enzyme; one molecule in asymmetric unit

Row | Compound | Ki [µM]
1 | NS(=O)(=O)N[C@@H](Cc1ccccc1)C(=O)O [SPhe, N-sulfamoyl-L-phenylalanine] | 35.1
2 | N=C(N)NCCC[C@H](NS(N)(=O)=O)C(=O)O [SArg, N-sulfamoyl-L-arginine] | 340
3 | CC(C)C[C@H](NS(N)(=O)=O)C(=O)O [SLeu, N-(aminosulfonyl)-L-leucine] | 8.94
4 | NS(=O)(=O)N[C@@H](CCC(=O)O)C(=O)O [SGlu, N-(aminosulfonyl)-L-glutamic acid] | 3090
